Each compound was assayed against T1, hMAGL (Homo sapiens, UniProt Q99685) (assay: 2-AG assay: MAGL inhibition, hydrolysis of 2-arachidonoylglycerol to arachidonic acid followed by mass spectrometry).
T1 sequence (Q99685 1-303): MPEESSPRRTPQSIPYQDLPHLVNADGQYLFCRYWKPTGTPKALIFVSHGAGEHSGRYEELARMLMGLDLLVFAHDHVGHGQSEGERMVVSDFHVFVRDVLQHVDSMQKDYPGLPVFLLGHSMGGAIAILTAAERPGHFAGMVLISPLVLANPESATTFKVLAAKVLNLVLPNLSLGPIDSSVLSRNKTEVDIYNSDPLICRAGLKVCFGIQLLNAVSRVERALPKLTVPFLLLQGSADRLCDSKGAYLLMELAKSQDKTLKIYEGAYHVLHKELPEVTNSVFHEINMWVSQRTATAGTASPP
Format: biochemical
Procedure, shortened: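 Read-out is LC-MS/MS of arachidonic acid released from 2-arachidonoylglycerol (8 μM final), normalised to d8-arachidonic acid internal standard after acetonitrile quench. Enzyme […] and compound were pre-mixed 15 min, then reacted 30 min, both at RT, in Tris/EDTA buffer with 0.01% Tween-20 and 2.5% DMSO.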

IC50 [nM]	Compound
10.5	O=C(N1CC2(CC(n3cnc(C(F)(F)F)n3)C2)C1)N1CC2(CN(Cc3sncc3C(F)(F)F)C2)C1 [Example 178, [6-[[4-(trifluoromethyl)isothiazol-5-yl]methyl]-2,6-diazaspiro[3.3]heptan-2-yl]-[6-[3-(trifluoromethyl)-1,2,4-triazol-1-yl]-2-azaspiro[3.3]heptan-2-yl]methanone]
3.59	O=C(N1CC2(CCN(Cc3ncc(C(F)F)s3)CC2)C1)N1CC2(CC(c3cc(C4CC4)n[nH]3)C2)C1 [Example 30, [6-(3-cyclopropyl-1H-pyrazol-5-yl)-2-azaspiro[3.3]heptan-2-yl]-[7-[[5-(difluoromethyl)thiazol-2-yl]methyl]-2,7-diazaspiro[3.5]nonan-2-yl]methanone]
13.1	O=C(N1CC2(CC(n3cnc(C4CC4)n3)C2)C1)N1CC2(CN(Cc3cnc(C(F)(F)F)o3)C2)C1 [Example 212, [6-(3-cyclopropyl-1,2,4-triazol-1-yl)-2-azaspiro[3.3]heptan-2-yl]-[6-[[2-(trifluoromethyl)oxazol-5-yl]methyl]-2,6-diazaspiro[3.3]heptan-2-yl]methanone]
71.5	O=C(N1CC2(CC(n3cnc(C4CC4)n3)C2)C1)N1CC2(CN(Cc3nnnn3CC(F)(F)F)C2)C1 [Example 198, [6-(3-cyclopropyl-1,2,4-triazol-1-yl)-2-azaspiro[3.3]heptan-2-yl]-[6-[[1-(2,2,2-trifluoroethyl)tetrazol-5-yl]methyl]-2,6-diazaspiro[3.3]heptan-2-yl]methanone]
334	O=C(N1CC2(CCN(Cc3cc(C(F)(F)F)no3)CC2)C1)N1CC2(CC(n3cnc(C4(O)CC4)n3)C2)C1 [Example 18, [6-[3-(1-hydroxycyclopropyl)-1,2,4-triazol-1-yl]-2-azaspiro[3.3]heptan-2-yl]-[7-[[3-(trifluoromethyl)isoxazol-5-yl]methyl]-2,7-diazaspiro[3.5]nonan-2-yl]methanone]
8.94	O=C(N1CC2(CC(Cc3nc(C(F)(F)F)cs3)C2)C1)N1CC2(CC(n3cnc(C4(O)CC4)n3)C2)C1 [Example 106, [6-[3-(1-hydroxycyclopropyl)-1,2,4-triazol-1-yl]-2-azaspiro[3.3]heptan-2-yl]-[6-[[4-(trifluoromethyl)thiazol-2-yl]methyl]-2-azaspiro[3.3]heptan-2-yl]methanone]
19	O=C(N1CC2(CC(Oc3cnn(CC(F)(F)F)c3)C2)C1)N1CC2(CC(c3cc(C4CC4)n[nH]3)C2)C1 [Example 248, [6-(3-cyclopropyl-1H-pyrazol-5-yl)-2-azaspiro[3.3]heptan-2-yl]-[6-[1-(2,2,2-trifluoroethyl)pyrazol-4-yl]oxy-2-azaspiro[3.3]heptan-2-yl]methanone]
86.8	O=C(N1CC2(CC(n3cnc(C4(O)CC4)n3)C2)C1)N1CC2(CN(Cc3cc(C(F)(F)F)sn3)C2)C1 [Example 155, [6-[3-(1-hydroxycyclopropyl)-1,2,4-triazol-1-yl]-2-azaspiro[3.3]heptan-2-yl]-[6-[[5-(trifluoromethyl)isothiazol-3-yl]methyl]-2,6-diazaspiro[3.3]heptan-2-yl]methanone]
328	O=C(N1CC2(CC(n3cnc(C4CC4)n3)C2)C1)N1CC2(CN(Cc3cnn(CC(F)(F)F)c3)C2)C1 [Example 110, [6-(3-cyclopropyl-1,2,4-triazol-1-yl)-2-azaspiro[3.3]heptan-2-yl]-[6-[[1-(2,2,2-trifluoroethyl)pyrazol-4-yl]methyl]-2,6-diazaspiro[3.3]heptan-2-yl]methanone]
18.1	O=C(N1CC2(CC(n3cnc(C4CC4)n3)C2)C1)N1CC2(CN(Cc3nccn3C(F)(F)F)C2)C1 [Example 236, [6-(3-cyclopropyl-1,2,4-triazol-1-yl)-2-azaspiro[3.3]heptan-2-yl]-[6-[[1-(trifluoromethyl)imidazol-2-yl]methyl]-2,6-diazaspiro[3.3]heptan-2-yl]methanone]
2.08	Cn1nc(CN2CC3(C2)CN(C(=O)N2CC4(CC(c5cc(C6CC6)n[nH]5)C4)C2)C3)cc1C(F)(F)F [Example 160]
13.1	O=C(N1CC2(CCN(Cc3ncc(C(F)F)s3)CC2)C1)N1CC2(CC(n3cnc(C(F)(F)F)n3)C2)C1 [Example 31, [7-[[5-(difluoromethyl)thiazol-2-yl]methyl]-2,7-diazaspiro[3.5]nonan-2-yl]-[6-[3-(trifluoromethyl)-1,2,4-triazol-1-yl]-2-azaspiro[3.3]heptan-2-yl]methanone]
190	O=C(N1CC2(CC(n3cnc(C(F)F)n3)C2)C1)N1CC2(CN(Cc3cc(C(F)(F)F)n[nH]3)C2)C1 [Example 311, [6-[3-(difluoromethyl)-1,2,4-triazol-1-yl]-2-azaspiro[3.3]heptan-2-yl]-[6-[[3-(trifluoromethyl)-1H-pyrazol-5-yl]methyl]-2,6-diazaspiro[3.3]heptan-2-yl]methanone]
122	Cn1nc(C(F)(F)F)cc1CN1CCC2(CC1)CN(C(=O)N1CC3(CC(n4cnc(C5(O)CC5)n4)C3)C1)C2 [Example 27, [6-[3-(1-hydroxycyclopropyl)-1,2,4-triazol-1-yl]-2-azaspiro[3.3]heptan-2-yl]-[7-[[2-methyl-5-(trifluoromethyl)pyrazol-3-yl]methyl]-2,7-diazaspiro[3.5]nonan-2-yl]methanone]
114	O=C(N1CC2(CCC(Cc3nnc(C(F)(F)F)[nH]3)CC2)C1)N1CC2(CC(n3cnc(C4(O)CC4)n3)C2)C1 [Example 35, [6-[3-(1-hydroxycyclopropyl)-1,2,4-triazol-1-yl]-2-azaspiro[3.3]heptan-2-yl]-[7-[[5-(trifluoromethyl)-4H-1,2,4-triazol-3-yl]methyl]-2-azaspiro[3.5]nonan-2-yl]methanone]
176	O=C(N1CC2(CC(n3cnc(C(F)(F)F)n3)C2)C1)N1CC2(CN(Cc3nccn3CC(F)(F)F)C2)C1 [Example 233, [6-[[1-(2,2,2-trifluoroethyl)imidazol-2-yl]methyl]-2,6-diazaspiro[3.3]heptan-2-yl]-[6-[3-(trifluoromethyl)-1,2,4-triazol-1-yl]-2-azaspiro[3.3]heptan-2-yl]methanone]
2.25	O=C(N1CC2(CC(Cc3cc(C4CC4)n[nH]3)C2)C1)N1CC2(CC(n3cnc(C4(O)CC4)n3)C2)C1 [Example 125, [6-[(3-cyclopropyl-1H-pyrazol-5-yl)methyl]-2-azaspiro[3.3]heptan-2-yl]-[6-[3-(1-hydroxycyclopropyl)-1,2,4-triazol-1-yl]-2-azaspiro[3.3]heptan-2-yl]methanone]
1380	O=C(N1CC2(CC(n3cnc(C(F)(F)F)n3)C2)C1)N1CC2(CN(Cc3cnn(CC(F)(F)F)c3)C2)C1 [Example 109, [6-[[1-(2,2,2-trifluoroethyl)pyrazol-4-yl]methyl]-2,6-diazaspiro[3.3]heptan-2-yl]-[6-[3-(trifluoromethyl)-1,2,4-triazol-1-yl]-2-azaspiro[3.3]heptan-2-yl]methanone]
2.08	O=C(N1CC2(CC(Cc3cc(C(F)(F)F)nn3CC(F)(F)F)C2)C1)N1CC2(CC(n3cnc(C4(O)CC4)n3)C2)C1 [Example 139]
16	O=C(N1CC2(CC(n3cnc(C4CC4)n3)C2)C1)N1CC2(CN(Cc3ccn(C(F)(F)F)n3)C2)C1 [Example 117, [6-(3-cyclopropyl-1,2,4-triazol-1-yl)-2-azaspiro[3.3]heptan-2-yl]-[6-[[1-(trifluoromethyl)pyrazol-3-yl]methyl]-2,6-diazaspiro[3.3]heptan-2-yl]methanone]
7.9	O=C(N1CC2(CC(n3cnc(C4CC4)n3)C2)C1)N1CC2(CN(Cc3cn[nH]c3C(F)(F)F)C2)C1 [Example 50, [6-(3-cyclopropyl-1,2,4-triazol-1-yl)-2-azaspiro[3.3]heptan-2-yl]-[6-[[5-(trifluoromethyl)-1H-pyrazol-4-yl]methyl]-2,6-diazaspiro[3.3]heptan-2-yl]methanone]
69.4	O=C(N1CC2(CC(Cc3nc(CC(F)(F)F)n[nH]3)C2)C1)N1CC2(CC(n3cnc(C(F)F)n3)C2)C1 [Example 316, [6-[3-(difluoromethyl)-1,2,4-triazol-1-yl]-2-azaspiro[3.3]heptan-2-yl]-[6-[[3-(2,2,2-trifluoroethyl)-1H-1,2,4-triazol-5-yl]methyl]-2-azaspiro[3.3]heptan-2-yl]methanone]
4.12	CC(C)(C)c1coc(CN2CC3(C2)CN(C(=O)N2CC4(CC(n5cnc(C(F)(F)F)n5)C4)C2)C3)n1 [Example 97, [6-[(4-tert-butyloxazol-2-yl)methyl]-2,6-diazaspiro[3.3]heptan-2-yl]-[6-[3-(trifluoromethyl)-1,2,4-triazol-1-yl]-2-azaspiro[3.3]heptan-2-yl]methanone]
0.19	O=C(N1CC2(CC(Cn3cc(S(=O)(=O)C(F)(F)F)cn3)C2)C1)N1CC2(CC(n3cnc(C(F)(F)F)n3)C2)C1 [Example 353, [6-[3-(trifluoromethyl)-1,2,4-triazol-1-yl]-2-azaspiro[3.3]heptan-2-yl]-[6-[(4-triflylpyrazol-1-yl)methyl]-2-azaspiro[3.3]heptan-2-yl]methanone]
20.5	O=C(N1CC2(CCN(Cc3cc(C(F)(F)F)[nH]n3)CC2)C1)N1CC2(CC(n3cnc(C(F)(F)F)n3)C2)C1 [Example 28]
